{
  "source": "patent US9907848B2",
  "about": "“Methods and compositions for treatment of metabolic disorders” (Beth Israel Deaconess Medical Center, Inc., priority 2010, dated 2018)",
  "key": {"iNKT cells [1]": {"system": "iNKT cells", "experiment": "αGC treatment of normal weight mice on SFD", "format": "in vivo", "description": "(§1) The prototypical ligand for iNKT cells is the glycolipid, αGC. We investigated whether αGC treatment could activate the residual iNKT cells in obesity and improve metabolic outcome (FIGS. 16A-16H).\nWt, Jα18 KO and CD1d KO were weighed weekly and food intake was monitored on HFD. Body fat content was measured by an X-ray emitting DEXA scan, performed after mice were sacrificed. Whole abdominal adipose fat pads were weighed after dissecting out the testes and lymph nodes. […] For glucose tolerance tests, fasted (10 h) mice received 1 g glucose per kg body weight intraperitoneally (i.p); for insulin resistance, the homeostatic model assessment of insulin resistance (HOMA-IR) was used (Matthews et al., Diabetologia 28:412-419, 1985) was used: fasting blood glucose×fasting insulin/22.5. Two samples of 5 mm liver were collected and fixed in formalin overnight, prior to paraffin mounting and preparation of ME or Oil Red 0 stained slides for measurement of fatty liver or adipose prior to αGC (or control) treatment. For H&E and Oil Red O staining, biopsies were viewed using the 20× objective. Degree of fatty liver was measured by Oil Red O staining intensity around 5 portal tract areas per slide.\nMice were injected i.p. with 2 μg of αGC or vehicle, and mice were sacrificed after 5 hours or 4 days, at the time of metabolic analysis. […]"}, "iNKT cells [2]": {"system": "iNKT cells", "experiment": "Effect of αGC on iNKT cells in fat, liver and spleen of obese mice", "format": "in vivo", "description": "Single cell suspensions of splenocytes, liver mononuclear cells (LMNCs), and adipose SVF were blocked with anti-CD16/32 mAb and stained for 30 min at 4° C. in the dark with PBS-57-loaded or empty CD1d tetramer-PE (NIH tetramer facility) and CD3 (1:150 dilution, eBiosciences). Macrophages were labeled with phycoerythrin-conjugated antibody to F4/80 (1 in 100) and CD11c (1 in 200) and CD206 (1 in 200) to differentiate M1 from M2 macrophages in the SVF as previously described.\n(§2) Mice were injected i.p. with 2 μg of αGC or vehicle, and mice were sacrificed after 5 hours or 4 days, at the time of metabolic analysis. Single cell suspension of splenocytes, LMNC, and adipose tissue SVF were obtained as before, but with the inclusion of Brefeldin A in all media. Single cell suspensions of splenocytes or liver mononuclear cells (LMC) were stained firstly with cell surface labeling anti-CD3 mAb and αGC-loaded CD1d tetramer. Cells were then fixed, permeabilized, and intracellular cytokine stained for IL-4, IL-10 and IFN-γ using Cytofix/cytoperm (BD Biosciences), according to the manufacturer's instructions."}, "iNKT cells [3]": {"system": "iNKT cells", "experiment": "αGC treatment of obese wt mice on HFD, metabolic outcome 4 days post-injection", "format": "in vivo", "description": "as §1\n(§3) Wt, Jα18 KO and CD1d KO were weighed weekly and food intake was monitored on HFD. Body fat content was measured by an X-ray emitting DEXA scan, performed after mice were sacrificed. Whole abdominal adipose fat pads were weighed after dissecting out the testes and lymph nodes. After 6 weeks on HFD, fasting blood glucose (OneTouch Ultra) and insulin concentrations (Crystal Chem ELISA) were measured. For glucose tolerance tests, fasted (10 h) mice received 1 g glucose per kg body weight intraperitoneally (i.p); for insulin resistance, the homeostatic model assessment of insulin resistance (HOMA-IR) was used (Matthews et al., Diabetologia 28:412-419, 1985) was used: fasting blood glucose×fasting insulin/22.5. Two samples of 5 mm liver were collected and fixed in formalin overnight, prior to paraffin mounting and preparation of ME or Oil Red 0 stained slides for measurement of fatty liver or adipose prior to αGC (or control) treatment. For H&E and Oil Red O staining, biopsies were viewed using the 20× objective. Degree of fatty liver was measured by Oil Red O staining intensity around 5 portal tract areas per slide.\nAdipocyte size and number were measured by osmium and immunohistochemistry. Two samples of 20-30 mg of adipose tissue per mouse were immediately fixed in osmium tetroxide (3% solution in collidine 0.05 M), minced into 1 mm pieces and incubated in the dark at room temperature for 48 hours. Adipose cell size and number were determined by a Beckman Coulter Multisizer III Counter with a 400 μm aperture. Adipose tissue was also fixed in formalin overnight, prior to paraffin mounting and preparation of H&E slid s. Adipocyte number was counted per field of view, in ten fields per sample and related back to the original weight of each fat pad.\nas §2"}, "IL-4 and IL-10": {"system": "IL-4 and IL-10", "experiment": "Neutralizing IL-4 and IL-10 prior to αGC treatment, metabolic outcomes after 4 days", "format": "in vivo, mice", "conditions": "IL-4 and IL-10 neutralized before αGC injection", "from_the_text": "As adipose tissue iNKT cells are skewed towards IL-4 and IL-10 production, we next investigated whether IL-4 and IL-10 were mediators of this protection seen by αGC treatment. We neutralized IL-4 and IL-10 prior to αGC treatment and measured metabolic outcomes after 4 days."}, "iNKT [4]": {"system": "iNKT", "conditions": "literature statement; cited from earlier work"}, "iNKT cells [5]": {"system": "iNKT cells", "experiment": "αGC treatment of obese Jα18 KO mice (no iNKT cells), control", "format": "in vivo", "conditions": "4 days post αGC", "description": "as §1, §3, §2"}, "iNKT [6]": {"system": "iNKT", "experiment": "iNKT cytokine production in response to αGC in vivo (wt mice)", "description": "(§4) To verify the cytokine profile, iNKT were isolated (>90% purity) and stimulated in vitro with αGC.\nas §2"}, "iNKT [7]": {"system": "iNKT", "experiment": "In vitro iNKT cytokine production stimulated by αGC-loaded CD1d+ C1R cells", "format": "cell-based, mice", "conditions": "isolated iNKT stimulated with αGC", "from_the_text": "as §4"}, "iNKT cells [8]": {"system": "iNKT cells", "experiment": "Effect of αGC on iNKT cells in fat, liver and spleen of obese mice", "format": "in vivo", "conditions": "after 6 hours"}},
  "note": "“Also recorded” adds a separate entry of the source.",
  "data": [
    {"smiles": "CCCCCCCCCCCCCCCCCCCCCCCCCC(=O)NC(COC1OC(CO)C(O)C(O)C1O)C(O)C(O)CCCCCCCCCCCCCC", "note": "(stereo not drawn) [αGC, α-galactosylceramide]", "values": [
      {"measurement": "GTT", "setting": "iNKT cells [1]", "result": "did not affect"},
      {"measurement": "fasting glucose", "setting": "iNKT cells [1]", "result": "did not affect"},
      {"measurement": "IFNγ production by adipose tissue iNKT cells", "setting": "iNKT cells [2]; 4-5 hours, vs spleen and liver", "result": "little IFNγ"},
      {"measurement": "IL-4 and IL-10 production by adipose tissue iNKT cells", "setting": "iNKT cells [2]; 4-5 hours, vs spleen and liver", "result": "more IL-4 and IL-10"},
      {"measurement": "expansion of iNKT cells in fat (adipose tissue)", "setting": "iNKT cells [2]; 4 days post-injection", "result": "expansion was greater in fat; also recorded: dramatic expansion"},
      {"measurement": "cytokine production by adipose tissue iNKT cells", "setting": "iNKT cells [2]; day 4 post-injection", "result": "still producing cytokines at day 4; also recorded: produced IL-4, IL-10, and IFN-γ at day 4; also recorded: remained actively producing cytokines"},
      {"measurement": "expansion of iNKT cells in spleen and liver", "setting": "iNKT cells [2]; day 4 post-injection", "result": "expansion of iNKT cells by day 4"},
      {"measurement": "cytokine production by liver and spleen iNKT cells", "setting": "iNKT cells [2]; within 4-5 hours", "result": "produced both IFNγ and IL-4"},
      {"measurement": "% body fat (DEXA)", "setting": "iNKT cells [3]; 4 days post αGC injection", "result": "lost a significant amount; also recorded: decreased"},
      {"measurement": "adipocyte number", "setting": "iNKT cells [3]; 4 days post αGC injection", "result": "did not affect cell number; also recorded: did not differ"},
      {"measurement": "adipocyte size", "setting": "iNKT cells [3]; 4 days post αGC injection", "result": "rapid and dramatic reduction in adipocyte size; also recorded: decreased"},
      {"measurement": "circulating leptin", "setting": "iNKT cells [3]; 4 days post αGC injection", "result": "significantly improved; also recorded: decreased"},
      {"measurement": "glucose tolerance test (GTT)", "setting": "iNKT cells [3]; 4 days post αGC injection", "result": "improved GTT, returning it to almost normal"},
      {"measurement": "insulin resistance / insulin sensitivity", "setting": "iNKT cells [3]; 4 days post αGC injection", "result": "significantly improved insulin resistance; also recorded: increased insulin sensitivity"},
      {"measurement": "lean mass (DEXA)", "setting": "iNKT cells [3]; 4 days post αGC injection", "result": "did not differ"},
      {"measurement": "serum IL-4", "setting": "iNKT cells [3]; 4 days post αGC injection", "result": "non-significant increase"},
      {"measurement": "serum IL-6", "setting": "iNKT cells [3]; 4 days post αGC injection", "result": "decreased serum IL-6"},
      {"measurement": "serum TNFα", "setting": "iNKT cells [3]; 4 days post αGC injection", "result": "increased serum TNF-a"},
      {"measurement": "serum triglycerides (circulating TGL)", "setting": "iNKT cells [3]; 4 days post αGC injection", "result": "significantly improved; also recorded: decreased circulating TGL"},
      {"measurement": "fat deposition in the liver (Oil Red O)", "setting": "iNKT cells [3]; 4 days post αGC injection, vs PBS", "result": "fat droplets were smaller and less frequent"},
      {"measurement": "fasting blood glucose", "setting": "iNKT cells [3]; 4 days post αGC injection, vs PBS control", "result": "marked reduction of fasting blood glucose"},
      {"measurement": "overall weight", "setting": "iNKT cells [3]; one i.p. injection of αGC, continued HFD for 4 days, vs PBS/vehicle", "result": "lost a significant amount of overall weight"},
      {"measurement": "GTT", "setting": "IL-4 and IL-10", "result": "prevented improvement"},
      {"measurement": "fasting glucose", "setting": "IL-4 and IL-10", "result": "prevented improvement"},
      {"measurement": "activation of iNKT", "setting": "iNKT [4]", "result": "activate iNKT"},
      {"measurement": "GTT", "setting": "iNKT cells [5]", "result": "not seen; also recorded: did not affect"},
      {"measurement": "fasting glucose", "setting": "iNKT cells [5]", "result": "improvement in fasting glucose was not seen; also recorded: did not affect"},
      {"measurement": "weight loss", "setting": "iNKT cells [5]", "result": "weight loss was not seen"},
      {"measurement": "IL-4 production by adipose iNKT in vivo", "setting": "iNKT [6]; following injection of αGC", "result": "slightly less IL-4"},
      {"measurement": "IL-10 production by adipose iNKT in vivo", "setting": "iNKT [6]; following injection of αGC, vs liver and spleen", "result": "significantly more IL-10"},
      {"measurement": "IFNγ production by adipose iNKT in vivo", "setting": "iNKT [6]; following injection of αGC, vs liver or spleen", "result": "did not produce IFNγ"},
      {"measurement": "IFNγ production by spleen and liver iNKT in vivo", "setting": "iNKT [6]; response to αGC", "result": "copious IFNγ"},
      {"measurement": "IL-4 production by spleen and liver iNKT in vivo", "setting": "iNKT [6]; response to αGC", "result": "less IL-4"},
      {"measurement": "IL-10 production by spleen and liver iNKT in vivo", "setting": "iNKT [6]; response to αGC", "result": "very low levels of IL-10"},
      {"measurement": "IL-10 production by adipose iNKT in vitro", "setting": "iNKT [7]; vs liver or spleen", "result": "significantly more IL-10 per cell"},
      {"measurement": "IFNγ production by adipose iNKT in vitro", "setting": "iNKT [7]; vs splenic or hepatic iNKT", "result": "low levels of IFNγ; also recorded: significantly less IFNγ"},
      {"measurement": "invariant TCR expression on iNKT cells", "setting": "iNKT cells [8]", "result": "down-regulation of the invariant TCR after 6 hours"}
    ]}
  ]
}
